Measurements as given in patent publication US20130331331A1, “HEXAPEPTIDE WITH IMPROVED ACTIVITY IN THE REPAIR OF CELLULAR DNA OF DERMAL CELLS” (priority 2011, published 2013).
Non-standard residues stand in square brackets, D forms with d. Nle = CCCC[C@H](N)C(=O)O

Experiments:
Format in all cases: cell-based, human
Melanocytes = test: DNA damage as measured by cyclobutane pyrimidine dimers (CPD), flow cytometry; conditions: 48 h after 105 mJ/cm^2 UV
Procedure: Cyclobutane pyrimidine dimers (CPD), the major determinant of UV-induced DNA photoproducts, were detected using flow cytometry analysis.
Melanocytes were pretreated with 0 (control), 10 nM α-MSH or 1 nM NDP-MSH or 1 nM CUV9900 for 4 days prior to, and 2 days after exposure to 105 mJ/cm^2 UV, harvested 48 hours post irradiation, fixated with 70% ethanol, the DNA denatured with 1N HCl/0.2 mg/ml pepsin, then renaturated with sodium tetraborate. Melanocytes were blocked and incubated overnight at 4° C. with the anti-CPD antibody (diluted 1:500; TDM-2 clone), then with goat anti-mouse IgG Alexa Fluor 488 (Invitrogen, Carlsbad Calif.) for 1 hour, and finally resuspended in PBS containing RNase A and propidium iodide. Melanocytes were analyzed on a Coulter EPICS XL flow cytometer (Beckman Coulter) using a 488 nm argon ion laser A 525 band pass filter was used for the Alexa fluor 488 and a 620 band pass filter for the propidium iodide.

melanocytes strain 1505b = test: Tyrosinase activity dose-response, strain 1505b
Procedure: Dose-response experiments were carried out on another adult strain 102b which is shown in FIG. 6 and on the strain 1505b which is a melanocyte strain: melanocytes were treated with 0.001-10 nM CUV9990 or NDP-MSH, or 0.1-10 nM MSH for a total of 6 days, with the culture medium changed and fresh peptide added every other day. Cell numbers as well as tyrosinase activity were then determined. Tyrosinase activity was calculated first at activity/10^6 cells, and then as % of control. Twenty-four hours prior the end of the experiment, melanocytes received […] (0.7 μCi/ml medium). The conditioned medium from each dish was collected to be assayed for tyrosinase activity, and the cell numbers were determined using a Coulter Counter. Triplicate dishes were included in each group, and duplicate samples from each dish were assayed for tyrosinase activity. Each data point is the mean percent of control of 6 determinations/group±S.E.

melanocyte strain 1513c = test: Cell proliferation as a measure of stability, strain 1513c
Procedure: With continued reference to FIGS. 7, 8 and 9, to determine the stability of CUV9900 versus that of NDP-MSH and α-MSH, melanocytes were treated with 1 nM of each peptide, namely with CUV9900, NDP-MSH and α-MSH, for a total of 6 days, or with 1 nM peptides that were incubated for 5 hours at 37° C. prior to addition to the cultures, every other day, for a total of 6 days. Tyrosinase activity was measured at the end of treatment. In the experiments, cell number represents the mean percent of control of 3 determinations/group±SE, and tyrosinase activity data represent the mean percent of control of 6 determinations±S.E. It should be noted that for the sake of reproducibility the experiment of strain 1513c of FIG. 9 was performed once more 6 months later than the experiment of FIG. 7.
Peptides were incubated at 37 degrees Celsius for 5 hours and then split into groups. Cell proliferation was a measure of stability, whereby the experiments on strain 1513c were divided in period 1 and 2 under standard conditions.
Cell proliferation as a measure of stability is shown in Tables 1 to 3 below, wherein Table 1 is based on data derived from FIG. 7, Table 2 is based on data derived from FIG. 9, and Table 3 is based on data derived from FIG. 8: […]

## Ac-Nle-Glu His-D-Phe-Arg-Trp-NH2 (Ac-[Nle]EH[dF]RW-NH2; SMILES CCCC[C@H](NC(C)=O)C(=O)N[C@@H](CCC(=O)O)C(=O)N[C@@H](Cc1c[nH]cn1)C(=O)N[C@H](Cc1ccccc1)C(=O)N[C@@H](CCCNC(=N)N)C(=O)N[C@@H](Cc1c[nH]c2ccccc12)C(N)=O) [CUV9900, hexapeptide alpha-MSH analogue]
Melanocytes
  CPD cellular DNA damage, comparison in words: less CPD cellular DNA damage in comparison with and NDP-MSH and slightly higher values than alpha-MSH
Melanocytes strain 1505b
  effect on tyrosinase activity, comparison: equivalent to that of NDP-MSH
Melanocytes strain 1505b; 6 days treatment
  minimal effective dose, tyrosinase activity: 1 pM
Melanocyte strain 1513c; strain 1513c
  more stable than MSH (cell proliferation): 3.4%
  more stable than NDP-MSH (cell proliferation): 0.65%
Melanocyte strain 1513c; strain 1513c [2], mean
  Cell proliferation (cell number), Mean: 119.9% of control
